Experimental findings from ChEMBL document CHEMBL4145608, “Dehydrodiconiferyl Alcohol Inhibits Osteoclast Differentiation and Ovariectomy-Induced Bone Loss through Acting as an Estrogen Receptor Agonist” (J Nat Prod, 2018) are described below.

Activity calls are given as the source filed them. The rule behind the calls is not given here.

In data set [1] the test system is RAW264.7. Put plainly: Cytotoxicity against mouse RANKL-treated RAW264.7 cells assessed as reduction in cell viability at 10 to 40 uM after 72 hrs by MTT assay. Format: cell-based. The settings on record: raw264.7, 72 h. (Tetrazolium dyes change colour on reduction, which living cells bring about.)
The test system of data set [2] is RAW264.7. The experiment in a line: Inhibition of RANKL-induced osteoclast differentiation in mouse RAW264.7 cells assessed as decrease in TRAP activity at 10 to 40 uM after 5 days by microscopy. Format: functional, cell-based.
The test system of data set [3] is Mus musculus. The experiment in a line: Anti-osteoporotic activity in Balb/c mouse assessed as inhibition of OVX-induced TRAP mRNA expression level in bone marrow at 25 to 100 mg/kg, ip administered for 4 weeks daily by qRT-PCR method. Format: functional, organism-based. (In general: Real-time PCR tracks product formation cycle by cycle.)
Data set [4] relates to RAW264.7. The experiment in a line: Inhibition of RANKL-induced osteoclast differentiation in mouse RAW264.7 cells harboring ERalpha siRNA assessed as decrease in size of TRAP-positive multinucleated cells at 20 uM after 5 days by microscopy. Type of data set: functional, cell-based.
For a further data set, the species on record is Homo sapiens. Put plainly: Selectivity ratio of IC50 for recombinant human full length untagged ERbeta expressed in insect cells to IC50 for recombinant human full length untagged ERalpha expressed in insect cells.
The subject of data set [5] is RAW264.7. The experiment in a line: Inhibition of RANKL-induced osteoclast differentiation in mouse RAW264.7 cells assessed as decrease in TRAP activity at 20 uM after 5 days in presence of ERalpha antagonist MPP by microscopy. Format: functional, cell-based.
In data set [6] the test system is RAW264.7. The experiment in a line: Inhibition of NF-kappaB/p38 MAPK signaling pathway in mouse RAW264.7 cells assessed as reduction in RANKL-induced NFATc1 protein expression level after 24 hrs by Western blot method. Format: cell-based.
Data set [7] relates to RAW264.7. Put plainly: Inhibition of RANKL-induced osteoclast differentiation in mouse RAW264.7 cells assessed as decrease in TRAP mRNA level at 20 uM after 24 hrs in presence of ERalpha antagonist MPP by qRT-PCR method. Format: functional, cell-based.
Data set [8] has as its system Mus musculus. Put plainly: Anti-osteoporotic activity in Balb/c mouse assessed as inhibition of OVX-induced serum CTx level at 25 to 100 mg/kg, ip administered for 4 weeks daily by ELISA. Type of data set: functional, organism-based. On the technique in general: ELISA stands for enzyme-linked immunosorbent assay.
The subject of data set [9] is RAW264.7. The experiment in a line: Inhibition of RANKL-induced osteoclast differentiation in mouse RAW264.7 cells assessed as decrease in NFATc1 mRNA level at 20 uM after 24 hrs in presence of ERalpha antagonist MPP by qRT-PCR method. Type of data set: functional, cell-based.
Data set [10] has as its system RAW264.7. Put plainly: Inhibition of RANKL-induced osteoclast differentiation in mouse RAW264.7 cells harboring ERbeta siRNA assessed as decrease in c-Fos mRNA level at 20 uM after 24 hrs by qRT-PCR method. Format: functional, cell-based.
In data set [11] the test system is RAW264.7. The experiment in a line: Inhibition of NF-kappaB/p38 MAPK signaling pathway in mouse RAW264.7 cells assessed as reduction in RANKL-induced cathepsin K mRNA level after 24 hrs by qRT-PCR method. Format: cell-based.
In data set [12] the test system is RAW264.7. Put plainly: Inhibition of NF-kappaB/p38 MAPK signaling pathway in mouse RAW264.7 cells assessed as reduction in RANKL-induced NFATc1 nuclear translocation after 24 hrs by Western blot method. Type of data set: cell-based.
In data set [13] the target is T1, Estrogen receptor (Mus musculus) (UniProt P19785).
T1 sequence (whole entry): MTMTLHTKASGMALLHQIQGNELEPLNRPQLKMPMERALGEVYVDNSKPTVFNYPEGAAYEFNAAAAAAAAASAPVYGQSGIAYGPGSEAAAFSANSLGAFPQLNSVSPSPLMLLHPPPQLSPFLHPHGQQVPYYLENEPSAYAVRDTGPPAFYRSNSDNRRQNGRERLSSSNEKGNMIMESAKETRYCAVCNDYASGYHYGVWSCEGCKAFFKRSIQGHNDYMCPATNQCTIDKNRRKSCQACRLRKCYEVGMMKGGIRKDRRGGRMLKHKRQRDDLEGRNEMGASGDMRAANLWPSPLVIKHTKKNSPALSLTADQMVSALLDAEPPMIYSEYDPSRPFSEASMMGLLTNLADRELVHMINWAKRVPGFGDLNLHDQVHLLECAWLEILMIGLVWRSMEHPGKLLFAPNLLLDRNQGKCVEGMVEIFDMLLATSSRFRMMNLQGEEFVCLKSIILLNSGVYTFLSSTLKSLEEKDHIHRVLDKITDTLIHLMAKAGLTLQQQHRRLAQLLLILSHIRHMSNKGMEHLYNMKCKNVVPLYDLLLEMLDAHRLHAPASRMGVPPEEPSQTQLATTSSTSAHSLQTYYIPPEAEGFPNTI
The experiment in a line: Induction of estrogen receptor-mediated AMPKalpha1 activation in mouse RAW264.7 cells at 20 uM in presence of CAMKKbeta inhibitor STO609. Format: cell-based.

Data set [14] has as its system RAW264.7. Put plainly: Inhibition of RANKL-induced osteoclast differentiation in mouse RAW264.7 cells assessed as decrease in number of TRAP-positive multinucleated cells at 20 uM after 5 days in presence of ERalpha antagonist MPP by microscopy. Format: functional, cell-based.
Data set [15] relates to RAW264.7. The experiment in a line: Inhibition of RANKL-induced osteoclast differentiation in mouse RAW264.7 cells assessed as decrease in NFATc1 mRNA level at 20 uM after 24 hrs in presence of ERbeta antagonist PHTPP by qRT-PCR method. Type of data set: functional, cell-based.
For data set [16], the system named is RAW264.7. Put plainly: Inhibition of NF-kappaB/p38 MAPK signaling pathway in mouse RAW264.7 cells assessed as reduction in RANKL-induced c-Fos protein expression level after 24 hrs by Western blot method. Type of data set: cell-based.
In data set [17] the test system is Mus musculus. The experiment in a line: Anti-osteoporotic activity in Balb/c mouse assessed as inhibition of OVX-induced serum NTx level at 25 to 100 mg/kg, ip administered for 4 weeks daily by ELISA. Format: functional, organism-based.
Data set [18] concerns RAW264.7. Put plainly: Inhibition of RANKL-induced osteoclast differentiation in mouse RAW264.7 cells assessed as decrease in size of TRAP-positive multinucleated cells at 20 uM after 5 days in presence of ERalpha antagonist MPP by microscopy. Format: functional, cell-based.
Data set [19] concerns the target T1, Estrogen receptor (Mus musculus). The experiment in a line: Induction of estrogen receptor-mediated AMPKalpha1 activation in mouse RAW264.7 cells at 20 uM in presence of PKA inhibitor H89. Format: cell-based.
For data set [20], the system named is Mus musculus. The experiment in a line: Anti-osteoporotic activity in ip dosed OVX-induced bone loss in femur of Balb/c mouse administered for 4 weeks daily by microcomputed tomography. Type of data set: functional, organism-based.
Data set [21] concerns RAW264.7. Put plainly: Inhibition of NF-kappaB/p38 MAPK signaling pathway in mouse RAW264.7 cells assessed as reduction in RANKL-induced MMP-9 mRNA level after 24 hrs by qRT-PCR method. Format: cell-based.
The subject of data set [22] is Mus musculus. Put plainly: Anti-osteoporotic activity in Balb/c mouse assessed as decrease in OVX-induced structure model index in femur at 25 to 100 mg/kg, ip administered for 4 weeks daily by microcomputed tomography. Type of data set: functional, organism-based.
Data set [23] deals with RAW264.7. Put plainly: Inhibition of RANKL-induced bone resorption in mouse RAW264.7 cells assessed as reduction in pit formation after 7 days by optical microscopy. Format: functional, cell-based.

On to `COc1cc(C2Oc3c(OC)cc(/C=C/CO)cc3C2CO)ccc1O` (centres undefined), for which the Activity result was “Non-Toxic” in the data set on RAW264.7 [1] and “Dose-dependent effect” in the data set with Mus musculus [20]. Besides, the inhibition entry in the data set on RAW264.7 [2], with Mus musculus [3], with Mus musculus [8], in the data set with RAW264.7 [10], in the data set with RAW264.7 [15] and with Mus musculus [17] was “Active” throughout. Moreover, the inhibition entry in the data set on RAW264.7 [4], in the data set on RAW264.7 [5], in the data set on RAW264.7 [7], in the data set with RAW264.7 [9], in the data set on RAW264.7 [14] and in the data set on RAW264.7 [18] was “inactive” in each case. The Ratio IC50 in the data set filed under Homo sapiens is 4.63. Besides, the inhibition entry in the data set with RAW264.7 [6], with RAW264.7 [11], with RAW264.7 [12], in the data set with RAW264.7 [16], with RAW264.7 [21] and in the data set with RAW264.7 [23] was “Dose-dependent effect” each time. The outcome (in [13]; in [19]; in the data set on Mus musculus [22]) was Active.
